Assay results taken from US20050032873A1, “3-Amino chroman and 2-amino tetralin derivatives” (Wyeth, priority 2003, published 2005).
Counter-ions that a name gives are not always drawn.

melting point | Compound
116 °C (dec.) | CCCN(CCCCc1c[nH]c2ccc(F)cc12)C1COc2c(C(N)=O)ccc(F)c2C1 (centres unmarked) (as salt: hydrochloride) [Compound 124, 5-fluoro-3-[[4-(5-fluoro-1H-indol-3-yl)butyl](propyl)amino]chromane-8-carboxamide]
116 °C (dec.) | NC(=O)c1ccc(F)c2c1OCC(N(CCCCc1c[nH]c3ccc(F)cc13)CC1CC1)C2 (centres unmarked) (as salt: hydrochloride) [Compound 125, 3-{(cyclopropylmethyl)[4-(5-fluoro-1H-indol-3-yl)butyl]amino}-5-fluorochromane-8-carboxamide]
130 °C (dec.) | NC(=O)c1ccc(F)c2c1OCC(N(CCCCc1c[nH]c3ccc(F)cc13)C1CCC1)C2 (centres unmarked) (as salt: hydrochloride) [Compound 126, 3-{cyclobutyl[4-(5-fluoro-1H-indol-3-yl)butyl]amino}-5-fluorochromane-8-carboxamide]
112 °C (dec.) | CCN(CCCCc1c[nH]c2ccc(F)cc12)C1COc2c(C(N)=O)ccc(F)c2C1 (centres unmarked) (as salt: hydrochloride) [Compound 127, 3-{ethyl[4-(5-fluoro-1H-indol-3-yl)butyl]amino}-5-fluorochromane-8-carboxamide]
149 °C (dec.) | NC(=O)c1ccc(F)c2c1OCC(NCCCc1c[nH]c3c(F)cc(F)cc13)C2 (centres unmarked) (as salt: hydrochloride) [Compound 128, 3-{[3-(5,7-difluoro-1H-indol-3-yl)propyl]amino}-5-fluorochromane-8-carboxamide]
130 °C (dec.) | CCCN(CCCc1c[nH]c2c(F)cc(F)cc12)C1COc2c(C(N)=O)ccc(F)c2C1 (centres unmarked) (as salt: hydrochloride) [Compound 129, 3-[[3-(5,7-difluoro-1H-indol-3-yl)propyl](propyl)amino]-5-fluorochromane-8-carboxamide]
124 °C (dec.) | NC(=O)c1ccc(F)c2c1OCC(N(CCCc1c[nH]c3c(F)cc(F)cc13)CC1CC1)C2 (centres unmarked) (as salt: hydrochloride) [Compound 130, 3-{(cyclopropylmethyl)[3-(5,7-difluoro-1H-indol-3-yl)propyl]amino}-5-fluorochromane-8-carboxamide]
136 °C (dec.) | NC(=O)c1ccc(F)c2c1OCC(N(CCCc1c[nH]c3c(F)cc(F)cc13)C1CCC1)C2 (centres unmarked) (as salt: hydrochloride) [Compound 131, 3-{cyclobutyl[3-(5,7-difluoro-1H-indol-3-yl)propyl]amino}-5-fluorochromane-8-carboxamide]
125 °C (dec.) | CCN(CCCc1c[nH]c2c(F)cc(F)cc12)C1COc2c(C(N)=O)ccc(F)c2C1 (centres unmarked) (as salt: hydrochloride) [Compound 132, 3-[[3-(5,7-difluoro-1H-indol-3-yl)propyl](ethyl)amino]-5-fluorochromane-8-carboxamide]
125 °C (dec.) | CNC(=O)c1ccc(F)c2c1C[C@H](N(CCCCc1c[nH]c3ccc(F)cc13)C1CCC1)CO2 (as salt: hydrochloride) [Compound 145a, (3S)-3-{cyclobutyl[4-(5-fluoro-1H-indol-3-yl)butyl]amino}-8-fluoro-N-methylchromane-5-carboxamide]
125 °C (dec.) | CNC(=O)c1ccc(F)c2c1C[C@@H](N(CCCCc1c[nH]c3ccc(F)cc13)C1CCC1)CO2 (as salt: hydrochloride) [Compound 145b, (3R)-3-{cyclobutyl[4-(5-fluoro-1H-indol-3-yl)butyl]amino}-8-fluoro-N-methylchromane-5-carboxamide]
147 to 151 °C | NC(=O)c1ccc(F)c2c1C[C@@H](N(CCCc1c[nH]c3c(F)cc(F)cc13)CC1CC1)CO2 (as salt: hydrochloride) [Compound 147, (3R)-3-{(cyclopropylmethyl)[3-(5,7-difluoro-1H-indol-3-yl)propyl]amino}-8-fluorochromane-5-carboxamide]
168 to 174 °C (dec.) | C[C@H](CCN(C1CCC1)[C@H]1COc2c(F)ccc(C(N)=O)c2C1)c1c[nH]c2ccc(F)cc12 (as salt: hydrochloride) [Compound 152a, (3R)-3-{cyclobutyl[(3R)-3-(5-fluoro-1H-indol-3-yl)butyl]amino}-8-fluorochromane-5-carboxamide]
160 to 168 °C (dec.) | C[C@@H](CCN(C1CCC1)[C@H]1COc2c(F)ccc(C(N)=O)c2C1)c1c[nH]c2ccc(F)cc12 (as salt: hydrochloride) [Compound 153a, (3R)-3-{cyclobutyl[(3S)-3-(5-fluoro-1H-indol-3-yl)butyl]amino}-8-fluorochromane-5-carboxamide]
162 to 168 °C | C[C@@H](CCN(C1CCC1)[C@@H]1COc2c(F)ccc(C(N)=O)c2C1)c1c[nH]c2ccc(F)cc12 (as salt: hydrochloride) [Compound 153b, (3S)-3-{cyclobutyl[(3S)-3-(5-fluoro-1H-indol-3-yl)butyl]amino}-8-fluorochromane-5-carboxamide]
124 to 132 °C | CCN(CCc1coc2c(OC)cccc12)C1COc2c(F)ccc(C(N)=O)c2C1 (centres unmarked) (as salt: hydrochloride) [Compound 157, 3-{ethyl[2-(7-methoxy-1-benzofuran-3-yl)ethyl]amino}-8-fluorochromane-5-carboxamide]

melting point | Compound
125 to 132 °C | CCCN(CCc1coc2c(OC)cccc12)C1COc2c(F)ccc(C(N)=O)c2C1 (centres unmarked) (as salt: hydrochloride) [Compound 158, 8-fluoro-3-[[2-(7-methoxy-1-benzofuran-3-yl)ethyl](propyl)amino]chromane-5-carboxamide]
135 to 145 °C (dec.) | COc1cccc2c(CCN(C3CCC3)C3COc4c(F)ccc(C(N)=O)c4C3)coc12 (centres unmarked) (as salt: hydrochloride) [Compound 159, 3-{cyclobutyl[2-(7-methoxy-1-benzofuran-3-yl)ethyl]amino}-8-fluorochromane-5-carboxamide]
130 to 138 °C (dec.) | COc1cccc2c(CCN(CC3CC3)C3COc4c(F)ccc(C(N)=O)c4C3)coc12 (centres unmarked) (as salt: hydrochloride) [Compound 160, 3-{(cyclopropylmethyl)[2-(7-methoxy-1-benzofuran-3-yl)ethyl]amino}-8-fluorochromane-5-carboxamide]
125 to 128 °C | CCN(CCCc1coc2c(OC)cccc12)C1COc2c(F)ccc(C(N)=O)c2C1 (centres unmarked) (as salt: hydrochloride) [Compound 162, 3-{ethyl[3-(7-methoxy-1-benzofuran-3-yl)propyl]amino}-8-fluorochromane-5-carboxamide]
123 to 129 °C | CCCN(CCCc1coc2c(OC)cccc12)C1COc2c(F)ccc(C(N)=O)c2C1 (centres unmarked) (as salt: hydrochloride) [Compound 163, 8-fluoro-3-[[3-(7-methoxy-1-benzofuran-3-yl)propyl](propyl)amino]chromane-5-carboxamide]
131 to 140 °C (dec.) | COc1cccc2c(CCCN(C3CCC3)C3COc4c(F)ccc(C(N)=O)c4C3)coc12 (centres unmarked) (as salt: hydrochloride) [Compound 164, 3-{cyclobutyl[3-(7-methoxy-1-benzofuran-3-yl)propyl]amino}-8-fluorochromane-5-carboxamide]
125 to 132 °C | COc1cccc2c(CCCN(CC3CC3)C3COc4c(F)ccc(C(N)=O)c4C3)coc12 (centres unmarked) (as salt: hydrochloride) [Compound 165, 3-{(cyclopropylmethyl)[3-(7-methoxy-1-benzofuran-3-yl)propyl]amino}-8-fluorochromane-5-carboxamide]
110 to 117 °C (dec.) | CCCCN(CCCc1coc2c(OC)cccc12)C1COc2c(F)ccc(C(N)=O)c2C1 (centres unmarked) (as salt: hydrochloride) [Compound 166, 3-{butyl[3-(7-methoxy-1-benzofuran-3-yl)propyl]amino}-8-fluorochromane-5-carboxamide]
112 to 118 °C | CCN(CCCCc1coc2c(OC)cccc12)C1COc2c(F)ccc(C(N)=O)c2C1 (centres unmarked) (as salt: hydrochloride) [Compound 168, 3-{ethyl[4-(7-methoxy-1-benzofuran-3-yl)butyl]amino}-8-fluorochromane-5-carboxamide]
99 to 110 °C (dec.) | CCCN(CCCCc1coc2c(OC)cccc12)C1COc2c(F)ccc(C(N)=O)c2C1 (centres unmarked) (as salt: hydrochloride) [Compound 169, 8-fluoro-3-[[4-(7-methoxy-1-benzofuran-3-yl)butyl](propyl)amino]chromane-5-carboxamide]
114 to 120 °C | COc1cccc2c(CCCCN(CC3CC3)C3COc4c(F)ccc(C(N)=O)c4C3)coc12 (centres unmarked) (as salt: hydrochloride) [Compound 170, 3-{(cyclopropylmethyl)[4-(7-methoxy-1-benzofuran-3-yl)butyl]amino}-8-fluorochromane-5-carboxamide]
122 to 127 °C (dec.) | COc1cccc2c(CCCCN(C3CCC3)C3COc4c(F)ccc(C(N)=O)c4C3)coc12 (centres unmarked) (as salt: hydrochloride) [Compound 171, 3-{cyclobutyl[4-(7-methoxy-1-benzofuran-3-yl)butyl]amino}-8-fluorochromane-5-carboxamide]
103 to 111 °C | CCCN(CCCCc1coc2c(OC)cccc12)[C@H]1COc2c(F)ccc(C(N)=O)c2C1 (as salt: hydrochloride) [Compound 172, (3R)-8-fluoro-3-[[4-(7-methoxy-1-benzofuran-3-yl)butyl](propyl)amino]chromane-5-carboxamide]
155 to 156 °C | NC(=O)c1ccc(F)c2c1CC(NCCCn1ccc3ccccc31)CO2 (centres unmarked) (as salt: hydrochloride) [Compound 184, 8-Fluoro-3-{[3-(1H-indol-1-yl)propyl]amino}chromane-5-carboxamide]
166 to 168 °C | NC(=O)c1ccc(F)c2c1CC(NCCCCn1ccc3cccc(F)c31)CO2 (centres unmarked) (as salt: hydrochloride) [Compound 188, 8-Fluoro-3-{[4-(7-fluoro-1H-indol-1-yl)butyl]amino}chromane-5-carboxamide]
156.5 °C (dec.) | COc1cccc2c1CC(N[C@H]1CC[C@@H](c3c[nH]c4ccc(F)cc43)CC1)CO2 (relative stereo) (as salt: hydrochloride) [Compound 181a, cis-N-[4-(5-fluoro-1H-indol-3-yl)cyclohexyl]-5-methoxychroman-3-amine]
